Experimental data published in the NIST ThermoML archive (doi:10.1016/j.fluid.2012.11.005).

Experiment: excess molar enthalpy (molar enthalpy of mixing); xn = mol fraction of the nth substance listed
Details: 101 kPa, Liquid, Flow calorimetry

CC(C)CC(C)(C)C [2,2,4-trimethylpentane] + CCCCCO
x2 = 0
Details	excess molar enthalpy [kcal/mol]
298.15 K	0
313.15 K	0

CCCCCCC [heptane] + CCCCCO
x2 = 0
Details	excess molar enthalpy [kcal/mol]
298.15 K	0
313.15 K	0

CCCCCO [pentan-1-ol] + CC(C)CC(C)(C)C
excess molar enthalpy [kcal/mol]
Details	298.15 K	313.15 K
x1 = 0.0508	0.0899	–
x1 = 0.051	–	0.124
x1 = 0.0999	0.112	–
x1 = 0.1003	–	0.155
x1 = 0.1501	0.126	–
x1 = 0.1506	–	0.174
x1 = 0.2008	0.137	–
x1 = 0.2019	–	0.187
x1 = 0.25	0.143	–
x1 = 0.2512	–	0.194
x1 = 0.2999	0.148	–
x1 = 0.3012	–	0.199
x1 = 0.3516	0.148	–
x1 = 0.3517	–	0.2
x1 = 0.4025	0.147	–
x1 = 0.4026	–	0.199
x1 = 0.4514	0.145	0.194
x1 = 0.5025	0.139	–
x1 = 0.5026	–	0.187
x1 = 0.5516	0.131	–
x1 = 0.5517	–	0.177
x1 = 0.6025	0.121	–
x1 = 0.6026	–	0.164
x1 = 0.6513	0.109	0.148
x1 = 0.7015	0.0951	–
x1 = 0.7016	–	0.13
x1 = 0.7512	0.0802	–
x1 = 0.7513	–	0.11
x1 = 0.8003	0.064	0.088
x1 = 0.8503	0.048	0.0654
x1 = 0.9008	0.0311	0.0423
x1 = 0.9503	0.0147	0.0205
x1 = 1	0	0

CCCCCO [pentan-1-ol] + CCCCCCC
excess molar enthalpy [kcal/mol]
Details	298.15 K	313.15 K
x1 = 0.0484	–	0.113
x1 = 0.0563	0.088	–
x1 = 0.0981	–	0.148
x1 = 0.1109	0.111	–
x1 = 0.149	–	0.165
x1 = 0.1664	0.125	–
x1 = 0.1985	–	0.177
x1 = 0.2203	0.134	–
x1 = 0.2491	–	0.187
x1 = 0.2749	0.141	–
x1 = 0.2983	–	0.19
x1 = 0.3279	0.145	–
x1 = 0.3483	–	0.192
x1 = 0.3793	0.146	–
x1 = 0.3991	–	0.186
x1 = 0.4314	0.144	–
x1 = 0.4484	–	0.186
x1 = 0.4818	0.139	–
x1 = 0.4984	–	0.177
x1 = 0.5328	0.131	–
x1 = 0.5488	–	0.166
x1 = 0.5822	0.122	–
x1 = 0.5977	–	0.159
x1 = 0.6281	0.11	–
x1 = 0.6489	–	0.144
x1 = 0.6765	0.0984	–
x1 = 0.7003	–	0.124
x1 = 0.7235	0.0849	–
x1 = 0.7483	–	0.106
x1 = 0.7725	0.071	–
x1 = 0.7981	–	0.0845
x1 = 0.8182	0.0576	–
x1 = 0.8497	–	0.0637
x1 = 0.8643	0.0427	–
x1 = 0.8995	–	0.042
x1 = 0.9104	0.0282	–
x1 = 0.9491	–	0.0196
x1 = 0.9552	0.0138	–
x1 = 1	0	0
